From PMC7217877, “N-AS-triggered SPMs are direct regulators of microglia in a model of Alzheimer’s disease” (Nature Communications, 2020)
Where “and” joins values, the source holds several entries; their conditions need not be identical. Identical values can stand only once.

What was measured:
APP/PS1 mice = assay: ELISA of Aβ40 and Aβ42 in cortex (Fig 6e); type: in vivo, mouse; parameters: Ab 40 (ELISA, Figure 6e) / Ab 42 (ELISA, Figure 6e): unit not given beside the values
Method: For measurement of Aβ40 and Aβ42, we used commercially available ELISA kits (Invitrogen, KHB3481, and KHB3441). Cortex of mice was homogenized in buffer containing […] guanidine. ELISA was then performed for Aβ40 and Aβ42 according to the manufacturer’s instructions.
(§1) Transgenic mouse lines over-expressing the hAPP695swe (APP) and presenilin-1M146V (PS1) mutations were originated from GlaxoSmithKline (Harlow, UK)[32] and maintained as described previously. We purchased 5×FAD mice from Jackson Labs (Stock number. 34840-JAX). Because APP/PS1 and 5xFAD mice show sex differences in disease progression, we used only male mice. To examine possible therapeutic effect of N-AS and aspirin in APP/PS1 mice, the N-AS (30 mg kg^−1, Sigma-Aldrich, 01912) was injected daily s.c. for 8 weeks to 7-months-old APP/PS1 mice until the age of 9 months, and aspirin (2 mg kg^−1, Sigma-Aldrich, A5376)[33] was administrated orally to 7-months-old APP/PS1 mice for 8 weeks. Also, to confirm possible therapeutic efficacy of N-AS in 5×FAD, the N-AS (30 mg kg^−1, Sigma-Aldrich, 01912) was injected daily s.c. for 4 weeks to 3-months-old 5×FAD mice until the age of 4 months. Block randomization method was used to allocate the animals to experimental groups. To eliminate the bias, we were blinded in experimental progress such as data collection and data analysis. Mice were housed at temperature of 22 °C and a 12 h day/12 h night cycle with free access to tap water and food pellets. All protocols were approved by the Kyungpook National University Institutional Animal Care and Use Committee.

5×FAD mice = assay: western blot of synaptophysin, MAP2, synapsin1, PSD95 (Supplementary Fig 8f-i); type: in vivo, mouse; parameters: synaptophysin (western blot) / MAP2 (western blot) / synapsin1 (western blot): scale not given here
Method: Samples were lysed in RIPA buffer (Cell signaling Technologies), then subjected to SDS-PAGE and transferred to a nitrocellulose membrane. Membranes were blocked with 5% milk, incubated with primary antibody and then incubated with the appropriate horseradish peroxidase-conjugated secondary antibody. […] We performed densitometric quantification using the ImageJ software (National Institutes of Health). Images have been cropped for presentation.
as §1

[1] = tested on: immortalized human microglia; assay: live-cell phagocytosis assay (bead uptake, Supplementary Fig 6e,f); type: cell-based
Method: Live-cell phagocytosis assays were performed according to previously described procedures with minor modifications. Briefly, in a glass bottom cell culture dish (SPL, 101350), adult SV40 immortalized human microglia cells (Applied Biologics Materials, T0251) were seeded for phagocytosis assay. […] After incubation, the microglia were treated with 0 or 2.5 μM N-AS (Sigma-Aldrich, 01912) at 37 °C for 2 h. FITC beads (Invitrogen) preopsonized in FBS (Gibco) were added at a concentration at 0.01% and then immediately observed using a laser scanning confocal microscope equipped with a live cell chamber system (FV3000, Olympus) for 2 h. Confocal images were collected every 5 min for 2 h and analyzed using the ImageJ software (National Institutes of Health).

[2] = solubility (stated in discussion); type: physicochemical
neuron = assay: acetyl-CoA level in primary cells (assay kit); type: cell-based, C57BL/6 mice; conditions: Ab 10mM, replicates
Method: To confirm the generation and roles of N-AS in neurons, cells from E18 C57BL/6 mice were prepared as previously described. Cortices were dissected and then dissociated followed by incubation in papain (Worthington) at 37 °C for 15 min. Neurons were plated on poly-L-lysine-coated coverslips with neuronal culture medium, serum-free Neurobasal medium (Gibco) containing 2% B27 supplements (Gibco), 1 mM Glutamax supplement (Gibco), and 100 U ml^−1 streptomycin/ 100 U ml^−1 penicillin (Gibco) at 37 °C in a humidified atmosphere of 5% CO2. […] Primary astrocyte cultures were prepared from C57BL/6 mice as described previously. In brief, after removal of the meninges, postnatal day 7 (P7) mouse brain tissues were minced and incubated in a rocking water bath at 37 °C for 30 min in the presence of 0.25% trypsin-EDTA (Sigma-Aldrich). Enzyme-digested dissociated cells were triturated with astrocyte-specific medium (DMEM/F12 containing 10% FBS and 1% penicillin-streptomycin) and centrifuged at 155×g for 8 min. The pellet was resuspended in astrocyte-specific medium and passed through a 40-μm cell strainer. […] The human microglia treated with Aβ 1–42 and/or zileuton was incubated with N-AS (2.5 μM, 2 h, Sigma-Aldrich, 01912), and were analyzed for the generation and roles of N-AS. […]

[3] = APP/PS1 + N-AS, individual animals

| solubility, in words [2] | Molecule | Ab 40 (ELISA, Figure 6e) (APP/PS1 mice; [3]) | Ab 42 (ELISA, Figure 6e) (APP/PS1 mice; [3]) | Aβ levels by ELISA of Aβ40 and Aβ42 (APP/PS1 mice; N-AS vs vehicle APP/PS1) | synaptophysin (western blot) (5×FAD mice; 5xFAD+N-AS, sFig 8f (sheet untitled)) | MAP2 (western blot) (5×FAD mice; 5xFAD+N-AS, sFig 8g (sheet untitled)) | PSD95 (western blot) (5×FAD mice; 5xFAD+N-AS, sFig 8i (sheet untitled)) | synapsin1 (western blot) (5×FAD mice; 5xFAD+N-AS, sFig 8h (sheet untitled)) | synapse activity (5×FAD mice; 5×FAD, N-AS 30 mg kg^-1 daily s.c. 4 weeks) | phagocytosis capacity, in words ([1]; Aβ-treated human microglia + N-AS) | Final number of beads per cell (at 120 min) ([1]; human microglia, Ab 0mM, sFig 6f) | acetyl-CoA (Fig 3e) (neuron) |
| --- | --- | --- | --- | --- | --- | --- | --- | --- | --- | --- | --- | --- |
| poor solubility | CCCCCCCCCCCCC/C=C/[C@@H](O)[C@H](CO)NC(C)=O [N-AS, N-((2S,3R,E)-1,3-Dihydroxyoctadec-4-en-2-yl)acetamide] | 1042.75 and 892.25 and 1044 and 676.5 and 692.5 and 668.75 and 689.75 and 1124 | 921.303 and 908.818 and 878.061 and 828.152 and 906.333 and 894.303 and 859.97 and 905.879 | significantly lower Aβ levels | 4.053 and 6.357 and 5.065 and 6.083 and 5.205 and 5.711 | 2.523 and 3.013 and 3.332 and 2.975 and 2.768 and 3.172 | 1.388 and 2.072 and 1.927 and 1.53 and 1.73 and 1.999 | 3.576 and 2.661 and 2.523 and 3.332 and 3.119 and 2.592 | similarly improved AD pathology of 5×FAD mice | improved SPM production and phagocytosis capacity | 20 and 14 and 16 and 11 and 13 and 15 |  |
|  | Ab: Aβ 1–42 (Invitrogen, 03112) used to induce an AD environment in cells |  |  |  |  |  |  |  |  |  |  | 0.1397 and 0.4178 and 0.62 and 0.7945 and 0.1176 and 0.7145 |
